Molecules are shown by their SMILES.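 Cells were grown in 96-well plates and exposed to each compound for 48 hours at five concentrations; endpoints were interpolated linearly between bracketing concentrations, or set to the highest concentration if not reached. The concentration for 50% growth inhibition is given as GI50.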 The source made the active and inactive calls. Rule as the data show it: active = GI50 up to about 1.1 µM and inactive = higher.

Data on 13 compounds can be found in ChEMBL document CHEMBL1201862, “PubChem BioAssay data set” (2004).

Common to all, as to experiment: NCI tumour cell line growth inhibition, 48 h
Experiment [1] deals with HT-29.
Experiment [2] has as its system HCC 2998.
For experiment [3], the system named is KM12.
Experiment [4] relates to HOP-18.
Experiment [5] deals with SW-620.
Experiment [6] concerns RXF 393.
The test system of experiment [7] is HOP-62.
In experiment [8] the test system is MOLT-4.
Experiment [9] deals with HL-60.
The test system of experiment [10] is A549.
In experiment [11] the test system is SF-268.
Experiment [12] relates to U-251.
Experiment [13] relates to SNB-19.
Experiment [14] relates to M14.
Experiment [15] concerns UACC-62.
The test system of experiment [16] is NCI-H226.
The test system of experiment [17] is HCT-15.

As for `Cc1ccc2c(c1)-c1c3c(nn1-c1ccccc1)-c1ccccc1SC3O2` (stereo unspecified), the GI50 in experiment [1], in [2], in experiment [3], in experiment [4], in experiment [5] and in experiment [6] was > 100 µM (inactive) each time. Further, the GI50 in experiment [7], in experiment [8], in experiment [9], in [10], in [11] and in experiment [12] was > 100 µM (inactive) each time.
Take `COc1ccc(S(=O)(=O)N[C@H](C(=O)O)c2ccccc2)cc1`: the GI50 in experiment [1], in experiment [2], in experiment [13], in [3], in experiment [4] and in experiment [5] was > 100 µM (inactive) in each case. Besides, the GI50 in experiment [6], in [7], in experiment [14], in experiment [8], in experiment [10] and in [15] was > 100 µM (inactive) each time. The GI50 is > 100 µM (inactive) in [11], > 100 µM (inactive) in experiment [12], > 100 µM (inactive) in [16] and over 100 µM in experiment [17].
`C/C(=N\NS(=O)(=O)c1ccc(C)cc1)c1c(O)cc(C)oc1=O`: the GI50 in experiment [1], in experiment [2], in experiment [13], in experiment [3], in experiment [4] and in experiment [5] was > 100 µM (inactive) each time. In addition, the GI50 in experiment [7], in [14], in [8], in [9], in experiment [10] and in experiment [15] was > 100 µM (inactive) each time. For the same compound, the GI50 in experiment [11] is > 100 µM (inactive); in experiment [12], > 100 µM (inactive); in experiment [16], > 100 µM (inactive); in experiment [17] it was over 100 µM.
Turning to `N#CCN1C(=O)c2cccc3cc([N+](=O)[O-])cc(c23)C1=O`, the GI50 was 41.8 µM (inactive) in experiment [1]; 44.8 µM (inactive) in [2]; 84.9 µM (inactive) in experiment [13]; 32 µM (inactive) in experiment [3]; > 100 µM (inactive) in experiment [4]; 36.5 µM (inactive) in experiment [5]. The GI50 in experiment [6] was 28.4 µM (inactive); in experiment [7] it was 41.1 µM (inactive); in [14], 37.3 µM (inactive); in [8] it was 26.4 µM (inactive); in [9], 23.8 µM (inactive); in experiment [10], 40.1 µM (inactive). Moreover, the GI50 is 22.6 µM (inactive) in [15]; 52 µM (inactive) in experiment [11]; 38.7 µM (inactive) in experiment [12]; 17.3 µM (inactive) in [16]; 28 µM in [17].
Consider `C#CCNC(=O)NCCCCC(NC(C)=O)C(=O)NCc1ccccc1` (stereo unspecified), for which the GI50 in experiment [1], in [2], in [13], in [3], in experiment [4] and in [5] was > 100 µM (inactive) in each case. The GI50 in experiment [6], in experiment [7], in [14], in experiment [8], in [10] and in experiment [15] was > 100 µM (inactive) in each case. Further, the GI50 in experiment [11] is > 100 µM (inactive); in [12] it was > 100 µM (inactive); in experiment [16], > 100 µM (inactive); in experiment [17], over 100 µM.
For `CN1CCC(SC2Cc3cc(Cl)ccc3Sc3ccccc32)CC1` (stereo unspecified), the GI50 in experiment [1] was 4.24 µM (inactive); in [2], 8.93 µM (inactive); in experiment [13], 15.6 µM (inactive); in [3] it was 10.3 µM (inactive); in [4], 13.5 µM (inactive); in experiment [5], 13.6 µM (inactive). Moreover, the GI50 in experiment [6] is 3.66 µM (inactive); in experiment [7], > 10 µM (inactive); in experiment [14] it was 4 µM (inactive); in experiment [8] it was 4.24 µM (inactive); in experiment [9], 4.15 µM (inactive); in [10], 15.3 µM (inactive). For the same compound, the GI50 is 3.33 µM (inactive) in experiment [15]; 11.8 µM (inactive) in [11]; 13.6 µM (inactive) in experiment [12]; 15.1 µM (inactive) in experiment [16]; 15.7 µM in experiment [17].
For the compound `O=C(/C=C/c1ccccc1F)c1ccc([N+](=O)[O-])cc1`, the GI50 in experiment [1] was 9.44 µM (inactive); in experiment [2] it was 15.6 µM (inactive); in [4], 57.5 µM (inactive); in [5], 26.6 µM (inactive); in [6], 19.5 µM (inactive); in experiment [7] it was 32.6 µM (inactive). The GI50 in [14] is 26.8 µM (inactive); in experiment [8], 2.07 µM (inactive); in experiment [10] it was 31.4 µM (inactive); in experiment [15], 22.9 µM (inactive); in experiment [11] it was 27.2 µM (inactive); in [12], 15.1 µM (inactive). Besides, in experiment [17], the GI50 is 18.2 µM.
`N=S(c1ccccc1)c1ccccc1[N+](=O)[O-]` (stereo unspecified): the GI50 in experiment [1] is 21.5 µM (inactive); in [2], 19.1 µM (inactive); in [13], 18.5 µM (inactive); in [3] it was 18.1 µM (inactive); in [4], 32.6 µM (inactive); in experiment [5], 16.9 µM (inactive). In addition, the GI50 in experiment [7] is 25.6 µM (inactive); in experiment [14] it was 14.4 µM (inactive); in [8] it was 25.3 µM (inactive); in experiment [9] it was 12.9 µM (inactive); in [10] it was 16.7 µM (inactive); in experiment [15] it was 16.8 µM (inactive). The GI50 was 19.8 µM (inactive) in experiment [11], 17.4 µM (inactive) in experiment [12], 11.9 µM (inactive) in experiment [16] and 16.6 µM in experiment [17].
As to `COc1ccc(NC(=O)C/C(C)=N\N=C(N)N)c([N+](=O)[O-])c1`, the GI50 in [1], in experiment [2], in [13], in experiment [3], in experiment [4] and in [6] was > 100 µM (inactive) each time. Further, the GI50 was > 100 µM (inactive) in [7]; > 100 µM (inactive) in experiment [14]; > 100 µM (inactive) in experiment [8]; 88.5 µM (inactive) in experiment [9]; > 100 µM (inactive) in experiment [10]; > 100 µM (inactive) in [15]. In addition, the GI50 in [11] was > 100 µM (inactive); in [12], > 100 µM (inactive); in [16] it was > 100 µM (inactive); in experiment [17], over 100 µM.
In the case of `CCCN(CCC)C(=O)C(=O)c1c(N)[nH]n(-c2ccccc2)c1=O`, the GI50 is > 100 µM (inactive) in experiment [1]; > 100 µM (inactive) in experiment [2]; > 100 µM (inactive) in experiment [13]; 96.4 µM (inactive) in experiment [3]; > 100 µM (inactive) in experiment [4]; > 100 µM (inactive) in experiment [5]. Moreover, the GI50 in experiment [14] is > 100 µM (inactive); in [8] it was > 100 µM (inactive); in experiment [9] it was 80.9 µM (inactive); in [10], > 100 µM (inactive); in experiment [15] it was > 100 µM (inactive); in [11] it was > 100 µM (inactive). In addition, the GI50 in experiment [12] was > 100 µM (inactive); in experiment [16], > 100 µM (inactive); in [17], over 100 µM.
Regarding `c1ccc2c(c1)SC(=C1Sc3ccccc3S1)S2`, the GI50 in [1], in experiment [2], in experiment [13], in experiment [4], in experiment [5] and in [6] was > 100 µM (inactive) each time. Further, the GI50 in experiment [7], in experiment [14], in [8], in [10], in [15] and in experiment [11] was > 100 µM (inactive) throughout. The GI50 was > 100 µM (inactive) in experiment [12] and over 100 µM in experiment [17].
Regarding `N#CC1(Cc2ccc(N)cc2)c2ccccc2C=CN1C(=O)c1ccccc1` (stereo unspecified), the GI50 in [1] is 36.1 µM (inactive); in experiment [2] it was > 100 µM (inactive); in [13], 41.8 µM (inactive); in experiment [3] it was 47.5 µM (inactive); in [4], 25.2 µM (inactive); in [5], 68.2 µM (inactive). Moreover, the GI50 in experiment [6] was 27.4 µM (inactive); in experiment [7], > 100 µM (inactive); in experiment [14] it was 25.6 µM (inactive); in experiment [8], 28.9 µM (inactive); in experiment [9], 15.8 µM (inactive); in experiment [10], 35.7 µM (inactive). Also, the GI50 in experiment [15] is 30.8 µM (inactive); in [11] it was 40.6 µM (inactive); in experiment [12] it was 46.7 µM (inactive); in experiment [16], 39.2 µM (inactive).
Turning to `CN(C)/C=N/c1nc2c(ncn2C2OC(CO)C(O)C2O)c(=O)[nH]1` (stereo unspecified), the GI50 in experiment [1], in experiment [2], in [13], in experiment [3], in experiment [4] and in [5] was > 100 µM (inactive) each time. Also, the GI50 in experiment [6], in experiment [7], in experiment [14], in experiment [8], in [9] and in experiment [10] was > 100 µM (inactive) each time. Also, the GI50 is > 100 µM (inactive) in [15]; > 100 µM (inactive) in experiment [11]; > 100 µM (inactive) in experiment [12]; > 100 µM (inactive) in [16]; over 100 µM in [17].
